Results on 4 compounds are retold here after patent US20260000781A1, “FC CONJUGATES INCLUDING AN INHIBITOR OF CD73 AND USES THEREOF” (Cidara Therapeutics, Inc., priority 2022, published 2026).

The subject of this experiment is human PBMCs inhibited by AMP. Nature of the experiment: PBMC activation assay by flow cytometry (rescue of AMP suppressed cells). It is filed as cell-based. As to the method:
(§1) Human PBMCs (StemCell Technologies cat no. 70025) prepared in ImmunoCult™—XF T cell Expansion medium (StemCell Technologies cat no. 10981) were seeded at 1×10^5 cells per well (100 μL of 1×10^6 cells/mL) in the presence or absence of T cell activator anti-CD3/CD28/CD2 (StemCell Technologies cat no. 10970) in 96 well round bottom plates (Corning cat no. 3788). Ten-fold serial dilutions of each test article was prepared, resulting in final concentrations ranging from 0.1 nM-10,000 nM. 50 μL of test article was added to the cells, followed by 50 μL of adenosine 5′ monophosphate (AMP; MilliporeSigma cat no. A1752) for a final concentration of 30 μM. Plates were incubated at 37° C. with 5% CO2 for 72 h. After 72 h the cells were centrifuged for 5 min at 300×g at 4° C. then washed twice with cell staining buffer (BioLegend cat no. 420201). Cells were incubated with Fc block (Unlabeled, Clone: 3070; BD Biosciences cat no. 5642220) for 10 min at 4° C. Cells were stained with anti-human CD25 antibody, clone 2A3, PE (StemCell Technologies cat no. 60153PE) for 20 min at 4° C. protected from light. Cells were washed twice with cell staining buffer and resuspended in 200 μL of cell staining buffer. Samples were acquired using a Cytek Northern Lights flow cytometry system. CD25^+ by flow cytometry was used as the readout to measure PBMC activation after AMP inhibition. Samples were analyzed using FlowJo version 10. Percent rescue […] was plotted using GraphPad Prism Version 6 and EC50 values were generated using nonlinear regression analysis for total PBMCs or CD8^+ T cells using CD25^+ as read-out or granzyme B^+.
as §1, with “test article were prepared, resulting” for “test article was prepared, resulting”, “nonlinear regression analysis.” for “nonlinear regression analysis for total PBMCs or CD8^+ T cells using CD25^+ as read-out or granzyme B^+.”
Human PBMCs (StemCell Technologies cat no. 70025) prepared in ImmunoCult™—XF T cell Expansion medium (StemCell Technologies cat no. 10981) were seeded at 1×10^5 cells per well (100 μL of 1×10^6 cells/mL) in the presence or absence of T cell activator anti-CD3/CD28/CD2 (StemCell Technologies cat no. 10970) in 96 well round bottom plates (Corning cat no. 3788). Ten-fold serial dilutions of each test article was prepared in medium (ranging from 4,000 nM-0.4 nM), resulting in final concentrations ranging from 1,000 nM-0.1 nM. 50 μL of test article was added to the cells, followed by 50 μL of adenosine 5′ monophosphate (AMP; MilliporeSigma cat no. A1752) for a final concentration of 30 μM. […]
For orientation: Flow cytometry measures light scatter and fluorescence of single cells or particles in a stream.

The mark [1] stands for this setting: read-out: 30 μM AMP EC50, CD25+ as a read-out, total PBMCs, 72 h.
Setting [2] is: 30 μM AMP, 72 h, read-out: CD8+CD25+ EC50.
Setting [3] is: 30 μM AMP, 72 h, read-out: CD8+granzyme B+ EC50.

The structures appear in SMILES notation. Where two headings read alike, the source gives them in different places.

One may read the EC50 as the concentration that produces a half-maximal response. Regarding `C[C@H](Nc1cc(Cl)nc2c1cnn2[C@@H]1O[C@H](COP(=O)(O)CP(=O)(O)O)[C@@H](O)[C@H]1O)c1ccccc1F` [AB680], the EC50 is 9 nM (Homo sapiens, PBMC, read-out: 30 μM AMP EC50 [nM], CD25+ as a read-out, total PBMCs, 72 h); 10 nM (Homo sapiens, PBMC, read-out: EC50 [nM] (median, n = 3) CD4+CD25+, 30 μM AMP, 72 h); 10 nM (Homo sapiens, PBMC, read-out: EC50 [nM] (median, n = 3) CD8+CD25+, 30 μM AMP, 72 h); 47 nM (Homo sapiens, PBMC, read-out: EC50 [nM] (median, n = 3) CD8+Granzyme B+, 30 μM AMP, 72 h); 10 to 54 nM (Homo sapiens, PBMC, 30 μM AMP, 72 h, CD4+CD25+, CD8+CD25+, CD8+Granzyme B+, read-out: EC50 values (range over the read-outs)); 8.1 nM (Homo sapiens, PBMC, 30 μM AMP, 72 h, read-out: CD8+CD25+ EC50). In addition, where the note is “Homo sapiens, PBMC, 30 μM AMP, 72 h, read-out: CD8+granzyme B+ EC50”, the EC50 was determined as 1.4 nM.

`COC[C@](CO)(OC[C@H]1O[C@@H](n2ncc3c(NC4CCCC4)nc(Cl)nc32)[C@H](O)[C@@H]1O)P(=O)(O)O` [OP5244]: the concentration for a half-maximal effect (EC50) under setting [1] worked out at 8 nM and the EC50 (read-out: 30 μM AMP EC50, batches of Conjugate 172c, CD25+ as a read-out, 72 h (Table 13)) was determined as 17 nM.

In the case of `COC[C@](CO)(OC[C@H]1O[C@@H](n2ncc3c(NC4CCCC4)nc(Cl)nc32)[C@H](O)[C@@H]1O)P(=O)(O)O` [OP-5244], the half-maximal effective concentration (EC50) worked out at 5.9 nM under setting [2]; 1.4 nM under setting [3]; 7 nM (read-out: EC50 [nM] (median, n = 3) CD4+CD25+, 30 μM AMP, 72 h); 7 nM (read-out: EC50 [nM] (median, n = 3) CD8+CD25+, 30 μM AMP, 72 h); 8 nM (read-out: EC50 [nM] (median, n = 3) CD8+Granzyme B+, 30 μM AMP, 72 h).

Turning to `O=P(O)(O)COC[C@H]1O[C@@H](n2ncc3c(N4CC5(CCc6ccccc65)C4)nc(Cl)nc32)[C@H](O)[C@@H]1O` [SHR170008], the concentration for a half-maximal effect (EC50) is, setting by setting: under setting [2], 598 nM; under setting [3], 212 nM; under setting [1], 374 nM.
